Measured values reported in US4968788A, “Biologically reversible phosphate and phosphonate protective gruops” (Board of Regents, The University of Texas System, priority 1989, dated 1990).
Values belong to the molecule of their own block, whether it stands above or below them.

What was measured:
physchem = format: physicochemical
Procedure: Several tests have been performed with both types of protected compositions. […] The stabilities of these protected compositions were determined in aqueous buffered solutions having pH ranging from 1 to 10, and also under selected biological conditions. Except for the acetoxymethyl derivatives of the second type, these phosphoesters were relatively stable in a neutral environment. They reverted to their parent compounds in acidic or basic media.
The protected product was stable in neutral aprotic solvents such as benzene, diethyl ether and ethyl acetate. […] The half-life was greater than 4 hours.
These solutions were analyzed by (HPLC) high performance liquid chromatography (Waters model ALC 204). The disappearance of the bis(acyloxymethyl) phosphate was monitored by reversed-phase chromatography on a column of μ Bondapak-C18 (30 cm×4 mm i.d., 10 μm; Waters Assoc., Milford, Mass.) using solutions of 0.01M potassium phosphate buffer (pH 7.0) with methanol as the mobile phase (typically 25-50% alcohol).
The formation of intermediate B and mono(acetoxymethyl) phosphate C was monitored by ion-pair chromatography on μ Bondapak-C using the same buffer system as described above, except that tetrabutylammonium hydroxide was added to a concentration 2×10^-3 M, or by anion-exchange chromatography on a column of Partisil SAX (25 cm×4.6 mm i.d., 10 μm; Whatman) using a linear gradient of 0.01-0.1M potassium phosphate buffer (pH 6.5) as an eluent. The flow rates for these analyses and the ones described above ranged from 1.0 to 2.0 ml/min. The column effluents were monitored at 254 nm with a Schoeffel model 450 UV detector, and the concentrations were determined by comparison of the peak areas with those of reference standards.

[1] = degradation on incubation with mouse plasma; format: in vitro ADME
Procedure: (§1) (At appropriate intervals, aliquots (100 μl) of the incubation mixtures were diluted with 3 volumes of methanol and then agitated for 1 minute on a Vortex shaker. The precipitated protein was separated by centrifugation at 10,000×g for 5 minutes, and the supernatants were analyzed by HPLC as described above.)
(§2) was incubated at […] with mouse plasma and hog liver carboxylate esterase.

[2] = degradation on incubation with hog liver carboxylate esterase; format: in vitro ADME; conditions: pig, liver carboxylate esterase; 65 micrograms per milliliter, 37° C., pH 7.4, 8 milligrams protein per milliliter
Procedure: as §1, §2

[3] = system: hog liver carboxylate esterase; test: as above; format: in vitro ADME
Procedure: as §1, §2

[4] = system: Chinese hamster ovary cells; test: prevention of growth of Chinese hamster ovary cells in culture; format: cell-based
Procedure: Example 5 was repeated with the R substituent changed to fluorine (i.e., 2',5-dideoxy-5'-iodo-3'-O-acetyl-5-fluorouridine). There was a 15% yield of this product. This composition prevented the growth of Chinese hamster ovary cells in culture at a concentration of 5.0×10^-6 M [5-fluoro-2'-deoxyuridine (5-FUdR) control, 1.0×10^-6 M].
as §2

[5] = system: P388 leukemia which is resistant to 5-fluorouracil; test: activity against P388 leukemia resistant to 5-fluorouracil; conditions: P388 resistant to 5-fluorouracil
[6] = 65 micrograms per milliliter, 37° C., 0.05M potassium phosphate buffer (pH 7.4), mouse plasma 50% by volume

Structure (SMILES): CC(=O)OCOP(=O)(OCOC(C)=O)Oc1ccccc1 [Example 2, bis(acetoxymethyl) phenyl phosphate]
conversion in protonic solvents (physchem; ethanol, water or 0.05M potassium phosphate buffer (pH 7.4)): slowly converted to mono(acetoxymethyl) phenyl phosphate
half-life (physchem; ethanol, water or 0.05M potassium phosphate buffer (pH 7.4), read-out: half-life in protonic solvents): > 4 h
stability in neutral aprotic solvents (physchem; neutral aprotic solvents such as benzene, diethyl ether and ethyl acetate): stable
degradation in mouse plasma (first to mono(acetoxymethyl) analog, then to phenyl phosphate) [1, 6]: rapidly degraded
half-life [1, 6]: < 0.25 h
half-life [2]: < 0.25 h
degradation by hog liver carboxylate esterase (first to mono(acetoxymethyl) analog, then to phenyl phosphate) ([3]; 65 micrograms per milliliter, 37° C., pH 7.4, 8 milligrams protein per milliliter): rapidly degraded

cleavage of acyloxymethyl groups and 3'-acetyl group in mouse plasma [1]: successively cleaved to give 5-FdUMP
cleavage of acyloxymethyl groups and 3'-acetyl group with hog liver carboxylate esterase [3]: successively cleaved to give 5-FdUMP
Structure (SMILES): CC(=O)O[C@H]1C[C@H](n2cc(F)c(=O)[nH]c2=O)O[C@@H]1COP(=O)(OCOC(=O)C(C)(C)C)OCOC(=O)C(C)(C)C [Example 7]
concentration that prevented the growth of Chinese hamster ovary cells [4]: 1 µM
activity against P388 leukemia [5]: active

Structure (SMILES): O=c1[nH]c(=O)n([C@H]2C[C@H](O)[C@@H](CO)O2)cc1F [Example 5-FUdR, 5-fluoro-2'-deoxyuridine, reference compound]
minimal effective concentration ([4]; Cricetulus griseus, read-out: concentration that prevented the growth of Chinese hamster ovary cells): 1 µM

Structure (SMILES): CC(=O)O[C@H]1C[C@H](n2cc(F)c(=O)[nH]c2=O)O[C@@H]1COP(=O)(OCOC(=O)C(C)(C)C)OCOC(=O)C(C)(C)C [Example 6]
concentration that prevented the growth of Chinese hamster ovary cells [4]: 5 µM

Structure (SMILES): CC(C)(C)C(=O)OC1CCOP(=O)(Oc2ccccc2)O1 (stereo not shown) [Example 1]
stability in organic solvents or aqueous buffers (physchem; organic solvents or aqueous buffers): stable
conversion to phenyl phosphate with strong acids or bases (physchem; strong acids or bases): quantitatively converted to phenyl phosphate
reversion to phenyl phosphate in mouse plasma ([1]; 37° C., 30 minutes, mouse plasma): reverted to phenyl phosphate

Structure (SMILES): CC(C)(C)C(=O)OCOP(=O)(OCOC(=O)C(C)(C)C)Oc1ccccc1 [Example 3, bis(pivaloyloxymethyl) phenyl phosphate]
stability in protonic solvents (physchem; protonic solvents): stable in protonic solvents
resistance to both chemical and enzymatic hydrolysis ([1]; compared with the protected composition of Example 1 (so in the source)): much more resistant
half-life ([1]; pH 7.4, incubated with mouse plasma under the same conditions as in Example 2): ~5 h
